Laboratory results from US12049450B2, “Pyridyloxy-carboxylate derivative and preparation method therefor, herbicidal composition, and use” (Qingdao Kingagroot Chemical Compound Co., Ltd., priority 2018, dated 2024).

Experiments:
Test in all cases: Post-emergence test experiment (greenhouse pot, spray at 2-3 leaf stage)
Assay type in all cases: in vivo
Details in all cases: 1000 g/ha; post-emergence spray at 2-3 leaf stage; assessed after 3 weeks; fresh weight inhibition rate
[1] = tested on: Echinochloa crusgalli
Excerpt: (§1) The activity level standard of harmful plants destruction (i. e. growth inhibition rate) is as follows: • Level 5: the growth inhibition rate is greater than 85%; • Level 4: the growth inhibition rate is equal to or greater than 60% and less than 85%; • Level 3: the growth inhibition rate is equal to or greater than 40% and less than 60%; • Level 2: the growth inhibition rate is equal to or greater than 20% and less than 40%; • Level 1: the growth inhibition rate is equal to or greater than 5% and less than 20%; • Level 0: the growth inhibition rate is less than 5%;
(§2) The above described growth inhibition rate is fresh weight inhibition rate.
(§3) Post-emergence test experiment: Monocotyledonous and dicotyledonous weed seeds and main crop seeds (i. e. wheat, corn, rice, soybean, cotton, oilseed, millet and sorghum.) were put into a plastic pot loaded with soil. Then covered with 0.5-2 cm soil, the seeds were allowed to grow in good greenhouse environment. The test plants were treated at 2-3 leaf stage 2 weeks after sowing. The test compounds of the invention were dissolved with acetone respectively, then added with tween-80, and using 1.5 liters per hectare of an emulsible concentrate of methyl oleate as a synergist, and diluted by certain amount of water to certain concentration. The solution was sprayed to the plants with a sprayer. Then the plants were cultured for 3 weeks in the greenhouse, and the experiment result of weed controlling effect after 3 weeks was listed in tables 3-4.

[2] = tested on: Digitaria sanguinalis
Excerpt: as §1, §2, §3

[3] = tested on: Monochoria vaginalis
Excerpt: as §1, §2, §3

[4] = tested on: Galium spurium
Excerpt: as §1, §2, §3

[5] = tested on: Abutilon theophrasti
Excerpt: as §1, §2, §3

## CCOC(=O)Nc1cccc(CSC(=O)C(C)Oc2nc(F)c(Cl)c(N)c2Cl)c1 (racemic) [Compound 109]
[1]
  Activity level (growth inhibition rate) Echinochloa crusgalli: 5 (Level 5: the growth inhibition rate is greater than 85%)
[2]
  Activity level (growth inhibition rate) Digitaria sanguinalis: 5 (Level 5: the growth inhibition rate is greater than 85%)
[3]
  Activity level (growth inhibition rate) Monochoria Vaginalis: 5 (Level 5: the growth inhibition rate is greater than 85%)
[4]
  Activity level (growth inhibition rate) Galium spurium: 5 (Level 5: the growth inhibition rate is greater than 85%)
[5]
  Activity level (growth inhibition rate) Abutilon theophrasti: 5 (Level 5: the growth inhibition rate is greater than 85%)

## COCOc1cccc(C)c1COC(=O)C(C)Oc1nc(F)c(Cl)c(N)c1Cl (racemic) [Compound 110]
[1]
  Activity level (growth inhibition rate) Echinochloa crusgalli: 5 (Level 5: the growth inhibition rate is greater than 85%)
[2]
  Activity level (growth inhibition rate) Digitaria sanguinalis: 5 (Level 5: the growth inhibition rate is greater than 85%)
[3]
  Activity level (growth inhibition rate) Monochoria Vaginalis: 5 (Level 5: the growth inhibition rate is greater than 85%)
[4]
  Activity level (growth inhibition rate) Galium spurium: 5 (Level 5: the growth inhibition rate is greater than 85%)
[5]
  Activity level (growth inhibition rate) Abutilon theophrasti: 5 (Level 5: the growth inhibition rate is greater than 85%)

## CC(Oc1nc(F)c(Cl)c(N)c1Cl)C(=O)OCc1cc(Br)cc(C=O)c1 (racemic) [Compound 111]
[1]
  Activity level (growth inhibition rate) Echinochloa crusgalli: 5 (Level 5: the growth inhibition rate is greater than 85%)
[2]
  Activity level (growth inhibition rate) Digitaria sanguinalis: 5 (Level 5: the growth inhibition rate is greater than 85%)
[3]
  Activity level (growth inhibition rate) Monochoria Vaginalis: 5 (Level 5: the growth inhibition rate is greater than 85%)
[4]
  Activity level (growth inhibition rate) Galium spurium: 5 (Level 5: the growth inhibition rate is greater than 85%)
[5]
  Activity level (growth inhibition rate) Abutilon theophrasti: 5 (Level 5: the growth inhibition rate is greater than 85%)

## CC(Oc1nc(F)c(Cl)c(N)c1Cl)C(=O)OCc1cccc(Oc2ccccc2)c1 (racemic) [Compound 114]
[1]
  Activity level (growth inhibition rate) Echinochloa crusgalli: 5 (Level 5: the growth inhibition rate is greater than 85%)
[2]
  Activity level (growth inhibition rate) Digitaria sanguinalis: 5 (Level 5: the growth inhibition rate is greater than 85%)
[3]
  Activity level (growth inhibition rate) Monochoria Vaginalis: 5 (Level 5: the growth inhibition rate is greater than 85%)
[4]
  Activity level (growth inhibition rate) Galium spurium: 5 (Level 5: the growth inhibition rate is greater than 85%)
[5]
  Activity level (growth inhibition rate) Abutilon theophrasti: 5 (Level 5: the growth inhibition rate is greater than 85%)

## CC(Oc1nc(F)c(Cl)c(N)c1Cl)C(=O)OCc1cccc(-c2cccnc2)c1 (racemic) [Compound 115]
[1]
  Activity level (growth inhibition rate) Echinochloa crusgalli: 5 (Level 5: the growth inhibition rate is greater than 85%)
[2]
  Activity level (growth inhibition rate) Digitaria sanguinalis: 5 (Level 5: the growth inhibition rate is greater than 85%)
[3]
  Activity level (growth inhibition rate) Monochoria Vaginalis: 5 (Level 5: the growth inhibition rate is greater than 85%)
[4]
  Activity level (growth inhibition rate) Galium spurium: 5 (Level 5: the growth inhibition rate is greater than 85%)
[5]
  Activity level (growth inhibition rate) Abutilon theophrasti: 5 (Level 5: the growth inhibition rate is greater than 85%)

## CC(Oc1nc(F)c(Cl)c(N)c1Cl)C(=O)OCc1cccnc1 (racemic) [Compound 116]
[1]
  Activity level (growth inhibition rate) Echinochloa crusgalli: 5 (Level 5: the growth inhibition rate is greater than 85%)
[2]
  Activity level (growth inhibition rate) Digitaria sanguinalis: 5 (Level 5: the growth inhibition rate is greater than 85%)
[3]
  Activity level (growth inhibition rate) Monochoria Vaginalis: 5 (Level 5: the growth inhibition rate is greater than 85%)
[4]
  Activity level (growth inhibition rate) Galium spurium: 5 (Level 5: the growth inhibition rate is greater than 85%)
[5]
  Activity level (growth inhibition rate) Abutilon theophrasti: 5 (Level 5: the growth inhibition rate is greater than 85%)

## CC(Oc1nc(F)c(Cl)c(N)c1Cl)C(=O)OCc1ccncc1 (racemic) [Compound 117]
[1]
  Activity level (growth inhibition rate) Echinochloa crusgalli: 5 (Level 5: the growth inhibition rate is greater than 85%)
[2]
  Activity level (growth inhibition rate) Digitaria sanguinalis: 5 (Level 5: the growth inhibition rate is greater than 85%)
[3]
  Activity level (growth inhibition rate) Monochoria Vaginalis: 5 (Level 5: the growth inhibition rate is greater than 85%)
[4]
  Activity level (growth inhibition rate) Galium spurium: 5 (Level 5: the growth inhibition rate is greater than 85%)
[5]
  Activity level (growth inhibition rate) Abutilon theophrasti: 5 (Level 5: the growth inhibition rate is greater than 85%)

## Cc1cc(CSC(=O)C(C)Oc2nc(F)c(Cl)c(N)c2Cl)ccn1 (racemic) [Compound 118]
[1]
  Activity level (growth inhibition rate) Echinochloa crusgalli: 5 (Level 5: the growth inhibition rate is greater than 85%)
[2]
  Activity level (growth inhibition rate) Digitaria sanguinalis: 5 (Level 5: the growth inhibition rate is greater than 85%)
[3]
  Activity level (growth inhibition rate) Monochoria Vaginalis: 5 (Level 5: the growth inhibition rate is greater than 85%)
[4]
  Activity level (growth inhibition rate) Galium spurium: 5 (Level 5: the growth inhibition rate is greater than 85%)
[5]
  Activity level (growth inhibition rate) Abutilon theophrasti: 5 (Level 5: the growth inhibition rate is greater than 85%)

## CC(Oc1nc(F)c(Cl)c(N)c1Cl)C(=O)SCCc1cnccc1Cl (racemic) [Compound 119]
[1]
  Activity level (growth inhibition rate) Echinochloa crusgalli: 5 (Level 5: the growth inhibition rate is greater than 85%)
[2]
  Activity level (growth inhibition rate) Digitaria sanguinalis: 5 (Level 5: the growth inhibition rate is greater than 85%)
[3]
  Activity level (growth inhibition rate) Monochoria Vaginalis: 5 (Level 5: the growth inhibition rate is greater than 85%)
[4]
  Activity level (growth inhibition rate) Galium spurium: 5 (Level 5: the growth inhibition rate is greater than 85%)
[5]
  Activity level (growth inhibition rate) Abutilon theophrasti: 5 (Level 5: the growth inhibition rate is greater than 85%)

## CCn1nccc1C(Oc1nc(F)c(Cl)c(N)c1Cl)C(=O)OCc1ccccc1 (stereo not drawn) [Compound 57]
[3]
  Activity level (growth inhibition rate) Monochoria Vaginalis: 5 (Level 5: the growth inhibition rate is greater than 85%)
[4]
  Activity level (growth inhibition rate) Galium spurium: 5 (Level 5: the growth inhibition rate is greater than 85%)
[5]
  Activity level (growth inhibition rate) Abutilon theophrasti: 5 (Level 5: the growth inhibition rate is greater than 85%)

## Cc1nn(C)cc1C(Oc1nc(F)c(Cl)c(N)c1Cl)C(=O)SCc1ccccc1 (stereo not drawn) [Compound 58]
[3]
  Activity level (growth inhibition rate) Monochoria Vaginalis: 5 (Level 5: the growth inhibition rate is greater than 85%)
[4]
  Activity level (growth inhibition rate) Galium spurium: 5 (Level 5: the growth inhibition rate is greater than 85%)
[5]
  Activity level (growth inhibition rate) Abutilon theophrasti: 5 (Level 5: the growth inhibition rate is greater than 85%)

## Nc1c(Cl)c(F)nc(OC(C(=O)OCc2ccccc2)c2ccn(C(F)F)n2)c1Cl (stereo not drawn) [Compound 59]
[3]
  Activity level (growth inhibition rate) Monochoria Vaginalis: 5 (Level 5: the growth inhibition rate is greater than 85%)
[4]
  Activity level (growth inhibition rate) Galium spurium: 5 (Level 5: the growth inhibition rate is greater than 85%)
[5]
  Activity level (growth inhibition rate) Abutilon theophrasti: 5 (Level 5: the growth inhibition rate is greater than 85%)

## Nc1c(Cl)c(F)nc(OC(C(=O)OCc2ccccc2)c2ccccc2)c1Cl (stereo not drawn) [Compound 60]
[3]
  Activity level (growth inhibition rate) Monochoria Vaginalis: 5 (Level 5: the growth inhibition rate is greater than 85%)
[4]
  Activity level (growth inhibition rate) Galium spurium: 5 (Level 5: the growth inhibition rate is greater than 85%)
[5]
  Activity level (growth inhibition rate) Abutilon theophrasti: 5 (Level 5: the growth inhibition rate is greater than 85%)

## Nc1c(Cl)c(F)nc(OC(C(=O)SCc2ccccc2)c2ccc(C(F)(F)F)cc2)c1Cl (stereo not drawn) [Compound 61]
[3]
  Activity level (growth inhibition rate) Monochoria Vaginalis: 5 (Level 5: the growth inhibition rate is greater than 85%)
[4]
  Activity level (growth inhibition rate) Galium spurium: 5 (Level 5: the growth inhibition rate is greater than 85%)
[5]
  Activity level (growth inhibition rate) Abutilon theophrasti: 5 (Level 5: the growth inhibition rate is greater than 85%)

## Nc1c(Cl)c(F)nc(OC(C(=O)OCc2ccccc2)c2cccc(Cl)c2)c1Cl (stereo not drawn) [Compound 62]
[3]
  Activity level (growth inhibition rate) Monochoria Vaginalis: 5 (Level 5: the growth inhibition rate is greater than 85%)
[4]
  Activity level (growth inhibition rate) Galium spurium: 5 (Level 5: the growth inhibition rate is greater than 85%)
[5]
  Activity level (growth inhibition rate) Abutilon theophrasti: 5 (Level 5: the growth inhibition rate is greater than 85%)

## COc1ccc(C(Oc2nc(F)c(Cl)c(N)c2Cl)C(=O)OCc2ccccc2)c(C)c1 (stereo not drawn) [Compound 63]
[3]
  Activity level (growth inhibition rate) Monochoria Vaginalis: 5 (Level 5: the growth inhibition rate is greater than 85%)
[4]
  Activity level (growth inhibition rate) Galium spurium: 5 (Level 5: the growth inhibition rate is greater than 85%)
[5]
  Activity level (growth inhibition rate) Abutilon theophrasti: 5 (Level 5: the growth inhibition rate is greater than 85%)

## Nc1c(Cl)c(F)nc(OC(C(=O)OCc2ccccc2)c2cccnc2)c1Cl (stereo not drawn) [Compound 64]
[3]
  Activity level (growth inhibition rate) Monochoria Vaginalis: 5 (Level 5: the growth inhibition rate is greater than 85%)
[4]
  Activity level (growth inhibition rate) Galium spurium: 5 (Level 5: the growth inhibition rate is greater than 85%)
[5]
  Activity level (growth inhibition rate) Abutilon theophrasti: 5 (Level 5: the growth inhibition rate is greater than 85%)

## Nc1c(Cl)c(F)nc(OC(C(=O)SCc2ccccc2)c2cncnc2)c1Cl (stereo not drawn) [Compound 65]
[3]
  Activity level (growth inhibition rate) Monochoria Vaginalis: 5 (Level 5: the growth inhibition rate is greater than 85%)
[4]
  Activity level (growth inhibition rate) Galium spurium: 5 (Level 5: the growth inhibition rate is greater than 85%)
[5]
  Activity level (growth inhibition rate) Abutilon theophrasti: 5 (Level 5: the growth inhibition rate is greater than 85%)

## Nc1c(Cl)c(F)nc(OC(C(=O)OCc2ccccc2)c2ccc3ccccc3c2)c1Cl (stereo not drawn) [Compound 66]
[3]
  Activity level (growth inhibition rate) Monochoria Vaginalis: 5 (Level 5: the growth inhibition rate is greater than 85%)
[4]
  Activity level (growth inhibition rate) Galium spurium: 5 (Level 5: the growth inhibition rate is greater than 85%)
[5]
  Activity level (growth inhibition rate) Abutilon theophrasti: 5 (Level 5: the growth inhibition rate is greater than 85%)
